Assay results: US20230381142A1, “ANTILEISHMANIAL COMPOUNDS, COMPOSITIONS AND USE THEREOF” (TRUSTEES OF BOSTON UNIVERSITY, priority 2022, published 2023)
Where two headings read alike, the source gives them in different places.

Key:
[1] = tested on: L. donovani intracellular amastigotes infecting THP-1 macrophages; test: GSK intramacrophage L. donovani assay (LD AMMAC, inMac; Assay Conditions C); format: cell-based; conditions: Leishmania donovani
Procedure: Assay Conditions C: The intramacrophage Leishmania donovani activity assay was performed as described in Antimicrob Agents Chemother (2013) 57(7):2913-22.
(§1) The intramacrophage Leishmania donovani activity assay (LD AMMAC) at GlaxoSmithKline was performed as described.
(§2) Given the literature precedents described above and the apparent narrow tolerance for R^3 substitutions observed in the primary screen compounds, a thorough and methodical assessment was undertaken of tolerated groups at the three points of diversity (R^1/R^2/R^3) for the core. At this stage of the project, all analogues were assessed using a battery of assays performed in-house at GlaxoSmithKline. For antileishmanial activity, GSK's inMac assay was utilized. This assay provides two readouts of compound potency: average number of intracellular amastigotes per infected cell (AMMAC) EC50, percentage of infected cells per well (INFCELL) EC50, as well as a toxicity output derived from the number of host cells (MAC EC50). In addition, compounds were assessed for toxicity against HepG2 cells (HEPG2 EC50). Here, AMMAC EC50 values were focused on for relative potency assessments. […] It should be noted that for all compounds assessed in this project, the measured toxicity against THP-1 macrophages either equaled or exceeded that of HepG2 hepatocytes, therefore the MAC SI is used here as the more conservative estimate of therapeutic index.

[2] = GSK inMac assay, host cell toxicity readout (LD MAC); format: cell-based, human; conditions: human
Procedure: as §1, §2

[3] = tested on: L. donovani intracellular amastigotes in B10R cells; test: UCSD L. donovani infection assay (Assay Conditions D); format: cell-based; conditions: B10R cells
Procedure: (§3) Assay Conditions D: B10R cells (CVCL_0155) were seeded at 300 cells/well, and L. donovani WT promastigotes in stationary phase (7th day after passage) were added at 6,000 parasites/well (ratio of 20 parasites/cell). Both cells and parasites were seeded in DMEM High-Glucose medium (Gibco, cat. no. 11995065) containing 5% Fetal Bovine Serum (Sigma-Aldrich, cat. no. F2442) and 1% Penicillin-Streptomycin (Gibco, cat. no. 15140122). Cells and parasites were incubated in the presence of the compounds for 72 h at 37° C. and 5% C02. Plates were then fixed with 4% formaldehyde solution for at least 1 h, then washed with 1×PBS and stained with 5 μg/mL DAPI. Plates were read using an ImageXpress microscope (Molecular Devices) and analyzed by MetaXpress software (Molecular Devices) using a custom module optimized for this assay. […] Compounds were tested in a 10-point 2-fold serial dilution in 3 technical replicates, and 2 biological replicates. After 72 h, plates were fixed and stained with DAPI as described above. Images were acquired on an ImageXpress microscope, and analyzed using the MetaXpress custom module.
as §3, with “Compounds were obtained as 0.2 μmoles of dried film for primary single point screening. Each compound was diluted in DMSO to 10 μM final testing concentration. These compounds were tested in 2 biological replicates. The compounds were pre-spotted onto 384-well assay plates in single concentration.” for “Assay Conditions D:”, “CO2.” for “C02.”, “module. The DRCs were plotted, half-effective concentration (EC50) and half-cytotoxic concentration (CC50) were calculated using GraphPad Prism Software, version 6.05 (GraphPad Software, San Diego, CA).” for “module.”

[4] = THP-1 cells, values marked c, read-out: L. donovani amastigotes EC50 (THP-1 cells)
[5] = footnote c, read-out: THP-1 Host Cell CC50
[6] = values marked c: THP-1 cells, read-out: L. donovani amastigotes EC50 (μM, THP-1 or B10R cells)

Row | EC50 [1, 4] | Structure (SMILES) | CC50 [2, 5] | other results
1 | 4 µM | COc1cc(N2C(=O)c3[nH]nc(CC(C)C)c3C2c2ccc(F)cc2)cc(OC)c1OC (stereo not shown) [CMLD010896] | 3.2 µM | 
2 |  | CC(C)Cc1nn(-c2ccc(OC(F)(F)F)cc2)c2c1C(c1ccccc1)NC2=O (stereo not shown) [CMLD009657] |  | EC50 [1, 6]: 12.6 µM; CC50 ([2]; host THP-1 cells): ≥ 50.1 µM
3 | > 50 µM | CC(C)Cc1n[nH]c2c1C(c1ccc(F)cc1)N(C(CO)CO)C2=O (stereo not shown) [BUCMD00817] | > 50 µM | 
4 | > 100 µM | COc1ccc(N2C(=O)c3[nH]nc(CC(C)C)c3C2c2cnccc2Cl)cc1 (stereo not shown) [CMLD011579] | 20 µM | 
5 | 20 µM | CC(C)Cc1n[nH]c2c1C(c1ccccc1Cl)N(CCN1CCCC1)C2=O (stereo not shown) [BUCMD00799] | > 50 µM | 
6 | 5 µM | COc1cccc(N2C(=O)c3[nH]nc(CC(C)C)c3C2c2cccc(C(F)(F)F)c2)c1 (stereo not shown) [CMLD011140] | 20 µM | 
7 | > 100 µM | COc1ccc(N2C(=O)c3[nH]nc(CC(C)C)c3C2c2cccnc2Cl)cc1 (stereo not shown) [CMLD011559] | 20 µM | 
8 | 6.3 µM | COc1ccc(N2C(=O)c3[nH]nc(CC(C)C)c3C2c2cc(C(F)(F)F)ccc2C(F)(F)F)cc1 (stereo not shown) [CMLD010996] | 25.1 µM | 
9 |  | COc1cc(N2C(=O)c3[nH]nc(CC(C)C)c3C2c2ccc(F)cc2)ccc1F (stereo not shown) [CMLD011073] |  | EC50 [1, 6]: 20 µM; CC50 ([2]; host THP-1 cells): 15.8 µM
10 | 5 µM | CCC(C)(COC(C)=O)CN1C(=O)c2[nH]nc(CC(C)C)c2C1c1ccc(F)cc1 (stereo not shown) [CMLD011035] | 25.1 µM | 
11 | > 50 µM | COc1ccc(N2C(=O)c3[nH]nc(CC(C)C)c3C2c2ccncn2)cc1 (stereo not shown) [CMLD010887] | > 50 µM | 
12 |  | CC(C)Cc1n[nH]c2c1C(c1ccc(F)cc1)N(CC(C)(CO)CO)C2=O (stereo not shown) [CMLD011038] |  | EC50 [1, 6]: ≥ 50.1 µM; CC50 ([2]; host THP-1 cells): ≥ 50.1 µM
13 |  | COc1ccc(N2C(=O)c3c(c(CC(C)C)nn3C)C2c2ccc(Br)cc2)cc1 (stereo not shown) [CMLD006598] |  | CC50 ([2]; host THP-1 cells): ≥ 50.1 µM
14 | 20 µM | COc1cccc(N2C(=O)c3[nH]nc(CC(C)C)c3C2c2ccsc2)c1 (stereo not shown) [CMLD010880] | 39.8 µM | 
15 | 7.9 µM | COc1ccccc1N1C(=O)c2[nH]nc(CC(C)C)c2C1c1cccc(C(F)(F)F)c1 (stereo not shown) [CMLD011141] | 20 µM | 
16 |  | COc1ccc(N2C(=O)c3[nH]nc(CC(C)C)c3[C@H]2c2cccc(C(F)(F)F)c2)cn1 [CMLD011076] |  | EC50 [1, 6]: 10 µM; CC50 ([2]; host THP-1 cells): 15.8 µM
17 | 5 µM | CC(C)Cc1n[nH]c2c1C(c1cccc(Cl)c1)N(c1ccc3c(c1)OCO3)C2=O (stereo not shown) [CMLD011132] | 20 µM | 
18 | 20 µM | COc1ccc(N2C(=O)c3[nH]nc(CC(C)C)c3C2c2ccc(F)cc2)c(OC)c1 (stereo not shown) [CMLD010992] | 31.6 µM | 
19 | 4 µM | COc1ccc(N2C(=O)c3[nH]nc(CC(C)C)c3C2c2cccc(OC)c2)cc1 (stereo not shown) [CMLD011088] | 20 µM | 
20 |  | CC(C)Cc1n[nH]c2c1C(c1ccccc1C(F)(F)F)N(c1ccn(C)n1)C2=O (stereo not shown) [BUCMD00661] |  | L. donovani amastigotes EC75 (μM, B10R cells) [3]: >10 µM
21 |  | Cc1cc(N2C(=O)c3[nH]nc(CC(C)C)c3C2c2ccc(F)cc2)n(C)n1 (stereo not shown) [BUCMD00169] |  | L. donovani amastigotes EC75 (μM, B10R cells) [3]: >10 µM
22 |  | CC(C)Cc1n[nH]c2c1C(c1ccc(Br)cc1F)N(c1ccn(C)n1)C2=O (stereo not shown) [BUCMD00653] |  | L. donovani amastigotes EC75 (μM, B10R cells) [3]: >10 µM
23 |  | CC(C)Cc1n[nH]c2c1C(c1ccc(F)cc1)N(c1cc(C3CC3)[nH]n1)C2=O (stereo not shown) [BUCMD00170] |  | L. donovani amastigotes EC75 (μM, B10R cells) [3]: >10 µM
24 |  | COc1ccc(OC)c(N2C(=O)c3[nH]nc(CC(C)C)c3C2c2cncc(Br)c2)c1 (stereo not shown) [BUCMD00182] |  | L. donovani amastigotes EC75 (μM, B10R cells) [3]: >10 µM
25 |  | CC(C)Cc1n[nH]c2c1C(c1ccccc1Cl)N(c1ccc(C(=O)N3CCCC3)cc1)C2=O (stereo not shown) [BUCMD00727] |  | L. donovani amastigotes EC75 (μM, B10R cells) [3]: >10 µM
